Assays:
[1] = tested on: Mycobacterium tuberculosis H37Rv; assay: Anti-tubercular activity (MIC), susceptible H37Rv strain; type: cell-based; conditions: ATCC 25177 / H37Rv, MIC = minimum drug concentration inhibiting growth with no color change in the well, read-out: MIC (μg/mL) Susceptible (H37Rv)

| SMILES | melting point [°C] | MIC [1] [µg/mL] |
| --- | --- | --- |
| Cc1ccc2c(ccc[n+]2CC(=O)c2ccc(Br)cc2)c1.[Br-] | 221 to 222 | – |
| Cc1ccc2c(ccc[n+]2CC(=O)c2ccccc2[N+](=O)[O-])c1.[Br-] [Compound 3a, 6-Methyl-1-(2-(2-nitrophenyl)-2-oxoethyl)quinolin-1-ium bromide] | 218 to 219 | 32 |
| Cc1ccc2c(ccc[n+]2CC(=O)c2ccc(F)cc2)c1.[Br-] [Compound 3b, 1-(2-(4-Fluorophenyl)-2-oxoethyl)-6-methylquinolin-1-ium bromide] | 206 to 207 | 8 |
| Cc1ccc2c(ccc[n+]2CC(=O)c2cc(C(F)(F)F)cc(C(F)(F)F)c2)c1.[Br-] [Compound 3c, 1-(2-(3,5-Bis(trifluoromethyl)phenyl)-2-oxoethyl)-6-methylquinolin-1-ium bromide] | 246 to 247 | 16 |

Reference: patent publication US11884631B1 (priority 2023, dated 2024)
